From patent US8686024B2, “Indoline derivatives” (priority 2009, dated 2014)
Like-named read-outs stand apart in the source and are kept apart here.

Columns and labels:
[1] = molecular target: T1, butyrylcholine esterase (BuChE) (Mus musculus, UniProt Q03311); assay: In vitro assay for choline esterase inhibition (Ellman method), butyrylthiocholine substrate, mouse serum; assay type: biochemical; settings: for Ratio AChE/BuChE: selectivity for BuChE inhibition: IC50 (AchE)/IC50 (BuChE); for selectivity to butyrylcholinesterase (BuChE versus AChE inhibitory activity), in words: summary of Tables 1-3
T1 construct: brain homogenate and serum of mouse were used as choline esterase enzyme sources; from tissue; host or cells: mouse serum
Description: (§1) For measurement of esterase activity, brain homogenate and serum of mouse were used as choline esterase enzyme sources, and the method of Ellman et. al (Biochemical pharmacology 7: 88-95 1961) were referred. Compound of each example were diluted in dimethylsulfoxide.
(§2) In detail, acetylthiocholine or butyrylthiocholine as substrates, test compounds, and DNTB [[…]] were added to the mouse brain homogenate or serum, respectively.
(§3) After incubation, thiocholine was produced by enzyme reaction in the mixture, and then, the yellow product was formed by the reaction of thiocholine and DTNB. The activity of acetylcholine esterase (AChE) or butyrylcholine esterase (BuChE) was evaluated by determination of absorbance at 415 nm. […] And the selectivity for BuChE inhibition of each compound was calculated by the ratio: IC50 (AchE)/IC50 (BuChE).

[2] = molecular target: T2, acetylcholine esterase (AChE) (Mus musculus, UniProt P21836); assay: In vitro assay for choline esterase inhibition (Ellman method), acetylthiocholine substrate, mouse brain homogenate; assay type: biochemical
T2 construct: brain homogenate and serum of mouse were used as choline esterase enzyme sources; from tissue; host or cells: mouse brain homogenate
T2 sequence (P21836 32-614): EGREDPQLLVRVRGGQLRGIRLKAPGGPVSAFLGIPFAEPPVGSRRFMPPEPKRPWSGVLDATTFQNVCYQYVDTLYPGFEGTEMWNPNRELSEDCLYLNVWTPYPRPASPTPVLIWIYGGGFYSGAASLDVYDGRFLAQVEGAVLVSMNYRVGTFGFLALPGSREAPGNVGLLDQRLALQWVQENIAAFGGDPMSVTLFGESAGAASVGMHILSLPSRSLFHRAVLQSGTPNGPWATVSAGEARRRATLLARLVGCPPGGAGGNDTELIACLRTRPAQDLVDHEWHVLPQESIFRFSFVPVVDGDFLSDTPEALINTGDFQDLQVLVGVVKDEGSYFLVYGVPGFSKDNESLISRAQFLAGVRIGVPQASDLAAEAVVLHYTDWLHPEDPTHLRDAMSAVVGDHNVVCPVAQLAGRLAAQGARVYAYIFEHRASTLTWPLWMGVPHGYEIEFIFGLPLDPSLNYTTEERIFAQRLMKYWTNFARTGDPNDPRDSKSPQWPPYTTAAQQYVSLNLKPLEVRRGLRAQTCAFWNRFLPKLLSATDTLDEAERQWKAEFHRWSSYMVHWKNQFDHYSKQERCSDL
Description: as §1, §2, §3

[3] = mouse serum, butyrylthiocholine, absorbance at 415 nm, read-out: BuChE inhibitory activity IC50
[4] = mouse brain homogenate, acetylthiocholine, absorbance at 415 nm, read-out: AChE inhibitory activity IC50

T1 sequence (Q03311 30-603): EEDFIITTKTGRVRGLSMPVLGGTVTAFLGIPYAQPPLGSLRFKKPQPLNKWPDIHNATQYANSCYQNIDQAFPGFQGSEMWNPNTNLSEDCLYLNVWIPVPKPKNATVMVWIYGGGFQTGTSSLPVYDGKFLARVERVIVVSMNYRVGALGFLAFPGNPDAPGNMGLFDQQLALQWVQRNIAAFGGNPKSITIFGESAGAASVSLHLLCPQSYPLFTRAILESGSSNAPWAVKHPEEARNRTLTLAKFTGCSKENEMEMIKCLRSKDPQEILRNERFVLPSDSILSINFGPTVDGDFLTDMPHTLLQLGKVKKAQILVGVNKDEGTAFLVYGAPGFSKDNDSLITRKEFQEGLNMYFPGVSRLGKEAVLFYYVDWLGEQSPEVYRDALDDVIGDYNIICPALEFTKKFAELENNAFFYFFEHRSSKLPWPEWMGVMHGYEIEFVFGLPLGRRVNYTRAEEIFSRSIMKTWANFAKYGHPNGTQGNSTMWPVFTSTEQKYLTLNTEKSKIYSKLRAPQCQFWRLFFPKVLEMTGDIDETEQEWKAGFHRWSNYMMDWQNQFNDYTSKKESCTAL

| Structure (SMILES) | IC50 [1] [nM] | Ratio AChE/BuChE [1] | IC50 [2] [nM] | IC50 [1, 3] [nM] | selectivity to butyrylcholinesterase (BuChE versus AChE inhibitory activity), in words [1] | IC50 [2, 4] [nM] |
| --- | --- | --- | --- | --- | --- | --- |
| CC(C)c1ccc(NC(=O)Oc2ccc3c(c2)CCN3Cc2ccncc2)cc1 [Example 27, 1-(4-pyridylmethyl)indolin-5-yl 4-isopropylphenylcarbamate] | 1100 | >91 | > 100000 |  |  |  |
| CCNC(=O)Oc1ccc2c(c1)CCN2Cc1ccccc1 [Example 57, 1-benzylindolin-5-yl ethylcarbamate] |  | 2000 |  | 34 | much higher | 69000 |
| CN(CC1CCOCC1)C(=O)Oc1ccc2c(c1)C(C)(C)CN2Cc1cccnc1 [Example 219, N-methyl-O-[1-(3-pyridylmethyl)-3,3-dimethylindolin-5-yl]-N-(4-tetrahydropyranylmethyl)carbamate] | 1.2 | 17000 | 20000 |  | much higher |  |
| O=C(NCCc1ccncc1)Oc1ccc2c(c1)CCN2Cc1ccccc1 [Example 119, 1-benzylindolin-5-yl 2-(4-pyridyl)ethylcarbamate] |  | 240 |  | 59 | much higher | 14000 |
| CCCCCCNC(=O)Oc1ccc2c(c1)CCN2Cc1ccccc1 [Example 17, 1-benzylindolin-5-yl n-hexylcarbamate] |  | 500 |  | 16 | much higher | 8000 |
| CC(C)c1ccc(NC(=O)Oc2ccc3c(c2)CCN3Cc2cccc(O)c2)cc1 [Example 62, 1-(3-hydroxybenzyl)indolin-5-yl 4-isopropylphenylcarbamate] | 450 | >220 | > 100000 |  |  |  |
| O=C(NCCc1ccc(Cl)cc1)Oc1ccc2c(c1)CCN2Cc1ccccc1 [Example 104, 1-benzylindolin-5-yl 4-chlorophenethylcarbamate] |  | 500 |  | 11 | much higher | 5500 |
| CCCCCCNC(=O)Oc1ccc2c(c1)CCN2Cc1ccccn1 [Example 147, 1-(2-pyridylmethyl)indolin-5-yl n-hexylcarbamate] |  | 23 |  | 11 |  | 250 |
| O=C(NCC1CCCCC1)Oc1ccc2c(c1)CCN2Cc1ccccn1 [Example 148, 1-(2-pyridylmethyl)indolin-5-yl cyclohexylmethylcarbamate] |  | 600 |  | 2 | much higher | 1200 |
| O=C(NCC1CCCO1)Oc1ccc2c(c1)CCN2Cc1ccccc1 (stereo not shown) [Example 51, 1-benzylindolin-5-yl 2-tetrahydrofurylmethylcarbamate] |  | 1100 |  | 16 | much higher | 18000 |
| CC(C)CNC(=O)Oc1ccc2c(c1)CCN2Cc1ccccc1 [Example 35, 1-benzylindolin-5-yl 2-methylpropylcarbamate] |  | 5800 |  | 8 | much higher | 46000 |
| CC(C)c1ccc(NC(=O)Oc2ccc3c(c2)CCN3CCc2ccccc2)cc1 [Example 3, 1-phenethylindolin-5-yl 4-isopropylphenylcarbamate] | 1200 | >83 | > 100000 |  |  |  |
| CC(C)(C)C1CCC(NC(=O)Oc2ccc3c(c2)CCN3Cc2ccccc2)CC1 (stereo not shown) [Example 43, 1-benzylindolin-5-yl 4-tert-butylcyclohexylcarbamate] | 170 | >590 | > 100000 |  |  |  |
| CC(C)(C)CCNC(=O)Oc1ccc2c(c1)CCN2Cc1ccccc1 [Example 42, 1-benzylindolin-5-yl 3,3-dimethylbutylcarbamate] | 23 | >4300 | > 100000 |  | much higher |  |
| COc1ccccc1CCNC(=O)Oc1ccc2c(c1)CCN2Cc1ccccc1 [Example 117, 1-benzylindolin-5-yl 2-methoxyphenethylcarbamate] |  | 330 |  | 24 | much higher | 7900 |
| CC(C)c1ccc(NC(=O)Oc2ccc3c(c2)CCN3Cc2ccccc2O)cc1 [Example 66, 1-(2-hydroxybenzyl)indolin-5-yl 4-isopropylphenylcarbamate] | 570 | >180 | > 100000 |  |  |  |
| CC(C)c1ccc(CCNC(=O)Oc2ccc3c(c2)CCN3Cc2ccccc2)cc1 [Example 33, 1-benzylindolin-5-yl 4-isopropylphenethylcarbamate] | 350 | >290 | > 100000 |  |  |  |
| CC(C)(C)CNC(=O)Oc1ccc2c(c1)CCN2Cc1ccccc1 [Example 153, 1-benzylindolin-5-yl 2,2-dimethylpropylcarbamate] | 91 | >1100 | > 100000 |  | much higher |  |
| Cc1ccccc1CCNC(=O)Oc1ccc2c(c1)CCN2Cc1ccccc1 [Example 115, 1-benzylindolin-5-yl 2-methylphenethylcarbamate] |  | 1200 |  | 10 | much higher | 12000 |
| O=C(NCC1CCOC1)Oc1ccc2c(c1)CCN2Cc1ccccc1 (stereo not shown) [Example 155, 1-benzylindolin-5-yl 3-tetrahydrofurylmethylcarbamate] |  | 3800 |  | 15 | much higher | 57000 |
| CN(C)C(=O)Oc1ccc2c(c1)CCN2Cc1ccccc1 [Example 221, N,N-dimethyl-O-(1-benzylindolin-5-yl)carbamate] | 170 | 76 | 13000 |  |  |  |
| O=C(NCCC1CCN(Cc2ccccc2)CC1)Oc1ccc2c(c1)CCN2Cc1ccccc1 [Example 139, 1-benzylindolin-5-yl 2-(1-benzylpiperidin-4-yl)ethylcarbamate] | 43 | 63 | 2700 |  |  |  |
| CN(CC1CCOCC1)C(=O)Oc1ccc2c(c1)C(C)(C)CN2Cc1ccccn1 [Example 218, N-methyl-O-[1-(2-pyridylmethyl)-3,3-dimethylindolin-5-yl]-N-(4-tetrahydropyranylmethyl)carbamate] | 0.66 | 13000 | 8500 |  | much higher |  |
| CSCCCNC(=O)Oc1ccc2c(c1)CCN2Cc1ccccc1 [Example 49, 1-benzylindolin-5-yl 3-methylthiopropylcarbamate] |  | 530 |  | 12 | much higher | 6300 |
| O=C(NCC1CCCCC1)Oc1ccc2c(c1)CCN2Cc1ccccc1 [Example 34, 1-benzylindolin-5-yl cyclohexylmethylcarbamate] | 3 | >33000 | > 100000 |  | much higher |  |
